Reference: patent publication US6426351B1, “Chelerythrine-based therapies for cancer” (priority 2000, dated 2002)
Read-outs that look alike come from different tables or passages of the source.

Columns and labels:
[1] = Acute lethality (LD50), intraperitoneal; settings: mouse, in vivo; intraperitoneal (IP) in mice; read-out: LD50 (dose causing a 50% mortality)
Experimental: Basal activity of the enzyme (the activity in the absence of Ca^++, phosphatidylserine and dioleine) was not affected. In the present invention, the LD50 (dose causing a 50% mortality) was 20 mg/kg intraperitoneal (IP) in mice.

[2] = tested on: MCF7, MCF7ADR, HT29, DaOY and LnCaP cells; assay: MTT cytotoxicity assay, tumor cell line panel; format: cell-based; settings: Homo sapiens, exposure to drug for 4 h, range over MCF7, MCF7ADR, read-out: ED50 (effective dose required to inhibit the growth by 50% of the cells)
Experimental: (§1) FIG. 2A depicts that MCF7 (closed circle), MCF7ADR (open circle), HT29 (open square), DAOY (closed triangle) and LnCaP (open triangle) cells were exposed to fresh medium containing increasing concentrations of chelerythrine chloride for 4 h. After 6 days (MCF7, MCF7 ADR, HT29), 7 days (DAOY) or 13 days (LnCAP), MTT analysis was performed to determine cell density. Inhibition of cell growth relative to control (zero drug addition) was calculated for each concentration. Each point represents the mean of three determinations. […] Inhibition of cell growth relative to control (zero drug addition) was calculated for each concentration. […]
(§2) Cytotoxicity was evaluated using modifications of a described MTT assay (Hansen et al., 1989). […] A microplate reader set at 570 nm was used to determine the absorbance. Results are expressed as the fraction of the optical density determined for cells treated with drug compared to those treated with vehicle.
(§3) The cytotoxic effects of chelerythrine were evaluated in 9 human tumor cell lines to assess its spectrum of activity. Chelerythrine decreased cell viability as determined by the MTT assay in a dose-dependent manner in MCF7 breast (wt p53)(Blagosklonny et al., 1995), MCF7ADR breast (resistant to adriamycin), HT29 colon (mutant p53)(Shao et al., 1997), DaOY brain (mutant p53)(U et al., 1998), and LnCaP (mutant p53) (Carroll et al., 1993) prostate cells (FIG. 2). […]

SQ20B cells = assay: MTT cytotoxicity assay, SQ20B, dependence on exposure time; format: cell-based; settings: Homo sapiens, read-out: ED50 (the source's name)
Experimental: Cytotoxicity was evaluated using modifications of a described MTT assay (Hansen et al., 1989). Briefly, cells growing as a monolayer were plated at a density of 500 cells/well in 96 well-plates and allowed to grow for 24 h. […] 6-13 days after drug treatment, 25 μl of a 5 mg/ml solution of MTT was added to each well followed 4 h later by the addition of 100 μl lysing buffer (20% sodium dodecyl sulfate, 50% N, N-dimethylformamide and 0.8% acetic acid, pH 4.7) for an additional 22 h. A microplate reader set at 570 nm was used to determine the absorbance. Results are expressed as the fraction of the optical density determined for cells treated with drug compared to those treated with vehicle.
as §3, with “2). The effective dose required to inhibit the growth by 50% of the cells (ED50) ranged between 2 and 5 μM upon exposure to drug for 4 h.” for “2).”

[3] = tested on: SQ-20B, JSQ-3, SCC-35 and SCC61 cells; assay: MTT cytotoxicity assay, oral tumor cell lines; format: cell-based; settings: Homo sapiens, SQ20B, range over SQ-20B, read-out: ED50 (the source's name)
Experimental: as §1, §2, §3

SQ-20B cells = assay: DAPI staining of cell and nuclear morphology (apoptosis); format: cell-based, human; settings: 5 μM chelerythrine, 72 h following treatment
Experimental: DAPI was used to visualize nuclei […] and overlaid to the phase contrast image. Left, untreated control cells, right 5 μM chelerythrine treated cells.
5×10^5 SQ-20B cells were centrifuged at 1000 rpm and resuspended in approximately 100 μl of media. The cell suspension was then […] with 100 μl of DAPI (4′, 6-iamidino-2-phenylindole, Sigma, 1 μg/ml in PBT [PBS+1% Triton X-100]. One drop of this mixture was then placed on a microslide with a coverslip. The cells were viewed by fluorescence microscopy using an Olympus BX-40 microscope with a 100 Watt Mercury lamp, a 16 or 40×Fluorite objective, N.A. 0.75, (Leco #1-UB527) and a UV filter cube (ex 330-385 nm, em 420 nm, wide band pass, Leco #U-M536). Images were photographed using an Optronics cooled low-light video camera (Leco #DEI-470TB) with a 2× coupler (Leco #HR200-CMT). The image was saved to a digital file at 72 dpi for subsequent image processing with Paint Shop Pro 5 (JASC) running on a Windows NT4 workstation.
The inventors examined whether the concentrations of chelerythrine that decrease viability in the MTT assay induce apoptosis of SQ-20B cells. The inventors examined cell and nuclear morphology by DAPI staining (FIG. 3). Following exposure of SQ-20B cells to 5 μM chelerythrine, morphological changes consistent with apoptosis were observed (FIG. 3A) in nearly 100% of the cells 72 h following treatment.

SQ-20B xenografts = assay: SQ-20B xenograft tumor growth in nude mice; format: in vivo; settings: for mean tumor volume: IP
Experimental: Athymic (nude) mice were injected SC in the right hind limb with 5×10^6 SQ20B cells. Tumors were allowed to grow for 8 days at which time treatment was started. Control mice were weighed and injected IP with PBS on days 8, 10, and 12. Treatment group 2 (n=10 were injected once IP on days 8, 10, and 12 with 2.5 mg/kg chelerythrine chloride, treatment group 3 (n=8) were injected once IP on days 8, 10, and 12 with 5 mg/kg chelerythrine chloride, and treatment group 4 (n=8) were injected once IP on days 8, 11 and 14 with 5 mg/kg chelerythrine chloride. Tumor volume was determined on days 8, 10, 13, 15, 17, 21. Each data point represents the mean of 1-3 individual studies +/−SEM. The Mann-Whitney Rank Sum Test (p<0.05) denoted in the graphs by “*”.
SQ-20B (1-5×10^6 tumor cells were injected into the right hind limbs of Sprague-Dawley nude mice (Fredrick Cancer Research Institute, Fredrick Md.). Xenografts were grown for 2-3 wk at which time animals were sorted into treatment groups such that the mean tumor volume was 45 mm^3+/−4.5 mm^3 (SD). At day 0, initial tumor volume was determined by direct measurement with calipers, and tumor volume was deterred and calculated using the equation 1×w^2×0.5 (Hallahan et al., 1995). During treatment tumor volumes were measured twice weekly and are presented as percent of original tumor volume. Data are presented as fractional tumor volume +/−SEM. Significance analyzed using the Mann-Whitney Rank Sum Test (p<0.05) and denoted in the graphs by “*”.
(§4) Control mice (n=12) were weighed and injected IP with PBS on days 8, 10, and 12. To determine the proper injection volume, the weight of a mouse (in grams) was divided by 100, and the resulting number (in μl ) was used. Chelerythrine was dissolved in the corresponding volume of PBS. Mice in treatment group 2 (n=10) were injected IP on days 8, 10, and 12 with […]. Treatment group 3 (n=8) mice revere injected IP on days 8, 11, and 14 with 5 mg/kg chelerythrine chloride. Treatment group 4 mice (n=10) were injected IP on days 8, 11, 14, and 17 with 5 mg/kg chelerythrine chloride. Volume was determined on days 8, 10, 13, 15, 17, 21. Body weight was measured on days 8, 9, 10, 11, 12, 13, 14, 15, 16, 17, 18, 21. Each data point represents the mean of 1-3 individual studies (minimum of 8 mice/treatment groups).
Mice bearing SQ-2QB xenografts (n>8 for all groups) were injected IP with 2.5 mg/kg on days 8, 10, 12 (Group 2, n=10), 5mg/kg on days 8, 10, 12 (Group 3, n=8), and 5 mg/kg on days 8, 11, 14 (Group 4, n=8). […] By day 21, the mean tumor volumes measured 370 mm^3 in control group, 215 mm^3 in group 1, 197 mm^3 in group 2, and 115 mm^3 in group 3. […]

[4] = Body weight and deaths in treated xenograft-bearing mice; format: in vivo; settings: 2.5-5 mg/kg IP
Experimental: Mice were weighed on days 8, 9, 10, 11, 12, 13, 14, 15, 16, 17, 18, 21. Symbols represent the mean weight of animals in the representative treatment groups.
as §4
At no time did body weight of any study animal fall below 90% of the initial weight at the beginning of treatment. […] Similar results were obtained in two independent studies.

SQ20B = assay: Clonogenic survival of SQ20B with chelerythrine chloride and adriamycin; format: cell-based, human
L-1210 tumor cells = settings: cited from earlier work

COc1ccc2c(c[n+](C)c3c4cc5c(cc4ccc23)OCO5)c1OC [chelerythrine, 1,2-dimethoxy-12-methyl[1,3]benzodioxolo[5,6-c]phenanthridinium]
LD50 [1]: 20 mg/kg
EC50 [2]: 2000 to 5000 nM
EC50 (SQ20B cells; exposed for 4 h): 3700 nM
EC50 (SQ20B cells; exposed for 8 h): 1800 nM
EC50 [3]: 4000 to 5200 nM
cells with morphological changes consistent with apoptosis (SQ-20B cells): ~100%
percent change in volume of treated tumors compared to control tumors (%T/C) (SQ-20B xenografts; day 21, all treatment groups): less than 40%
mean tumor volume (SQ-20B xenografts; day 21, group 1 as printed): 215 mm^3
mean tumor volume (SQ-20B xenografts; day 21, group 2 as printed): 197 mm^3
mean tumor volume (SQ-20B xenografts; day 21, group 3 as printed): 115 mm^3
treatment related deaths [4]: no treatment related deaths
body weight relative to the initial weight at the beginning of treatment ([4]; any study animal, at any time): ≥ 90%
survival (clonogenic) (SQ20B; chelerythrine chloride 2 μM alone (0 ng/mL adriamycin)): 0.99
survival (clonogenic) (SQ20B; chelerythrine chloride 4 μM alone (0 ng/mL adriamycin)): 0.103
survival (clonogenic) (SQ20B; chelerythrine chloride 6 μM alone (0 ng/mL adriamycin)): 0.034
IC50 (L-1210 tumor cells): 53 nM

COc1cccc2c1C(=O)c1c(O)c3c(c(O)c1C2=O)C[C@@](O)(C(=O)CO)C[C@@H]3O[C@H]1C[C@H](N)[C@H](O)[C@H](C)O1 [adriamycin, reference compound]
survival (clonogenic) (SQ20B; adriamycin 1 ng/mL alone (0 chelerythrine)): 1.09
survival (clonogenic) (SQ20B; adriamycin 10 ng/mL alone (0 chelerythrine)): 0.822
survival (clonogenic) (SQ20B; adriamycin 50 ng/mL alone (0 chelerythrine)): 0.359
